# Reference: US8138168B1 (Takeda Pharmaceutical Company Limited, priority 2007, dated 2012)
# pIC50: −log10 of the molar value.
# Target: T1, Recombinant human renin (Homo sapiens, UniProt P00797)
# T1 construct: isolate the active form (residues 67-406); made in house; host or cells: FreeStyle 293-F cells (transient expression of pcDNA3.1(+)/hREN)
# T1 sequence (P00797 67-406): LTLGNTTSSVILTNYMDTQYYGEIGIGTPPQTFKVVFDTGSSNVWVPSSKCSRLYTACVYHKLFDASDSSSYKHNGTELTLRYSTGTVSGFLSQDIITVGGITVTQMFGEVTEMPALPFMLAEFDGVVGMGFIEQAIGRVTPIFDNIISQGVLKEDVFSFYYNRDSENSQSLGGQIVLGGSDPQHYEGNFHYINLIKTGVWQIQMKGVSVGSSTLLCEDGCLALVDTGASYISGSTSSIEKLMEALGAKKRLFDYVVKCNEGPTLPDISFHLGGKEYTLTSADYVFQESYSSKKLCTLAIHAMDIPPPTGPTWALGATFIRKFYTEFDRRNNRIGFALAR
# Assay: In vitro enzymatic activity assay of renin inhibitors (fluorogenic peptide substrate)
# Assay type: biochemical
# Settings: read-out: IC50 of Exemplified Compounds Against Renin
# Outline: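 Enzyme: recombinant human renin, 3 nM final, 10 min compound pre-incubation at 37 °C; buffer 50 mM Hepes pH 7.4 with 0.1 mg/mL BSA or extra 2% BSA; 5% DMSO.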
row,Compound,pIC50
1,"COCCCn1c([C@@H]2CCCN(C(=O)[C@@H]3CN(S(=O)(=O)c4cccc5c4ccn5C)C[C@H]3N)C2)nc2ccccc21 [Compound 392, ((3R,4S)-4-amino-1-(1-methyl-1H-indol-4-ylsulfonyl)pyrrolidin-3-yl)((R)-3-(1-(3-methoxypropyl)-1H-benzo[d]imidazol-2-yl)piperidin-1-yl)methanone]",< 6.00
2,"COCCCn1c([C@@H]2CCCN(C(=O)C[C@H](N)CNC(=O)Nc3ccc(OC)cc3C)C2)nc2ccccc21 [Compound 292, 1-((S)-2-amino-4-((R)-3-(1-(3-methoxypropyl)-1H-benzo[d]imidazol-2-yl)piperidin-1-yl)-4-oxobutyl)-3-(4-methoxy-2-methylphenyl)urea]",6.00 to 7.00
3,"COCCCn1c([C@@H]2CCCN(C(=O)C[C@H](N)Cc3ccc(-c4ccc5occc5c4)cc3)C2)nc2c(C)cccc21 [Compound 494, (R)-3-amino-4-(4-(benzofuran-5-yl)phenyl)-1-((R)-3-(1-(3-methoxypropyl)-4-methyl-1H-benzo[d]imidazol-2-yl)piperidin-1-yl)butan-1-one]",> 7.00
4,"O=C(Nc1ccc(Cl)c(C(F)(F)F)c1)N1CCCC(c2nc3ccccc3[nH]2)C1 (centres unmarked) [Compound 7, 3-(1H-benzo[d]imidazol-2-yl)-N-(4-chloro-3-(trifluoromethyl)phenyl)piperidine-1-carboxamide]",< 6.00
5,"COCCCn1c([C@@H]2CCCN(C(=O)C[C@H](N)Cc3ccc(-c4ccc5c(c4)CC(=O)N5)cc3)C2)nc2c(F)cccc21 [Compound 458, 5-(4-((R)-2-amino-4-((R)-3-(4-fluoro-1-(3-methoxypropyl)-1H-benzo[d]imidazol-2-yl)piperidin-1-yl)-4-oxobutyl)phenyl)indolin-2-one]",> 7.00
6,"COCCCn1c([C@@H]2CCCN(C(=O)[C@@H]3CN(C(=O)c4cc5ccccc5o4)C[C@H]3N)C2)nc2ccccc21 [Compound 406, ((3R,4S)-4-amino-1-(benzofuran-2-carbonyl)pyrrolidin-3-yl)((R)-3-(1-(3-methoxypropyl)-1H-benzo[d]imidazol-2-yl)piperidin-1-yl)methanone]",< 6.00
7,"COCCCn1c([C@@H]2CCCN(C(=O)C[C@H](N)Cc3ccc(-c4ccco4)cc3)C2)nc2ccccc21 [Compound 146, (R)-3-Amino-4-(4-(furan-2-yl)phenyl)-1-((R)-3-(1-(3-methoxypropyl)-1H-benzo[d]imidazol-2-yl)piperidin-1-yl)butan-1-one]",> 7.00
8,"COCCCn1c([C@@H]2CCCN(C(=O)C[C@H](N)CNC(=O)Nc3ccccc3-c3ccccc3)C2)nc2ccccc21 [Compound 291, 1-((S)-2-amino-4-((R)-3-(1-(3-methoxypropyl)-1H-benzo[d]imidazol-2-yl)piperidin-1-yl)-4-oxobutyl)-3-(biphenyl-2-yl)urea]",6.00 to 7.00
9,"COCCCn1c([C@@H]2CCCN(C(=O)C[C@H](N)Cc3ccc(-c4ccc(NC(=O)CO)cc4)cc3)C2)nc2ccccc21 [Compound 198, N-(4′-((R)-2-Amino-4-((R)-3-(1-(3-methoxypropyl)-1H-benzo[d]imidazol-2-yl)piperidin-1-yl)-4-oxobutyl)biphenyl-4-yl)-2-hydroxyacetamide]",> 7.00
10,"COCCCn1c([C@@H]2CCCN(C(=O)[C@@H]3CN(S(=O)(=O)c4ccccc4C#N)C[C@H]3N)C2)nc2ccccc21 [Compound 427, 2-((3S,4R)-3-amino-4-((R)-3-(1-(3-methoxypropyl)-1H-benzo[d]imidazol-2-yl)piperidine-1-carbonyl)pyrrolidin-1-ylsulfonyl)benzonitrile]",< 6.00
11,"COCCCn1c([C@@H]2CCCN(C(=O)[C@@H]3CN(S(=O)(=O)c4ccc(F)cc4Cl)C[C@H]3N)C2)nc2ccccc21 [Compound 349, ((3R,4S)-4-amino-1-(2-chloro-4-fluorophenylsulfonyl)pyrrolidin-3-yl)((R)-3-(1-(3-methoxypropyl)-1H-benzo[d]imidazol-2-yl)piperidin-1-yl)methanone]",6.00 to 7.00
